Results on three molecules are retold here after publication PMC10444810, “Induction of open-form bile canaliculus formation by hepatocytes for evaluation of biliary drug excretion” (Communications Biology, 2023).

Holding throughout (type): in vitro ADME
What all share (details): for Enzyme activity, Mean: mean of Well-1 to Well-4

One data set has as its target T1, CYP2D6 (Homo sapiens, UniProt P10635).
T1 construct: host or cells: PXB-cells (icHep: JFC, HUM181001B; sandwich culture: JFC)
In words: Metabolic assay, cocktail substrate method (bufuralol to 1’-hydroxybufuralol). On the procedure: (§1) The metabolic activity of icHep and sandwich-cultured PXB-cells was measured using the cocktail substrate method of drug-metabolizing enzymes. The components of the cocktail are summarized in Supplementary Table 1. Assays were initiated by treating cells with TB containing cocktail substrates. Time point of each substrate was set when a linear increase in its metabolite production was observed. Concentrations of metabolites produced in the medium were measured by liquid chromatography-mass spectrometry (LC-MS/MS).

For the next data set, the target named is T2, CYP3A4 (Homo sapiens, UniProt P08684).
T2 construct: host or cells: PXB-cells (icHep: JFC, HUM181001B; sandwich culture: JFC)
In words: Metabolic assay, cocktail substrate method (midazolam to 1’-hydroxymidazolam). On the procedure:
as §1

The next data set concerns the target T3, CYP2E1 (Homo sapiens, UniProt P05181).
T3 construct: host or cells: PXB-cells (icHep: JFC, HUM181001B; sandwich culture: JFC)
In words: Metabolic assay, cocktail substrate method (chlorzoxazone to 6’-hydroxychlorzoxazone). On the procedure: as §1

The mark [1] stands for this setting: PXB-cells (JFC), incubation time 15 min, single wells.
Where [2] appears, read: PXB-cells (JFC), incubation time 30 min, single wells.
Setting [3] is: PXB-cells (JFC), incubation time 45 min, single wells.
The mark [4] stands for this setting: PXB-cells (JFC), incubation time 60 min, single wells.
Setting [5] is: PXB-cells (JFC), incubation time 90 min, single wells.
[6] abbreviates: PXB-cells (JFC), rate per single well.
Setting [7] is: icHep (HUM18100B), incubation time 15 min, single wells.
Where [8] appears, read: icHep (HUM18100B), incubation time 30 min, single wells.
The mark [9] stands for this setting: icHep (HUM18100B), incubation time 45 min, single wells.
[10] abbreviates: icHep (HUM18100B), incubation time 60 min, single wells.
Where [11] appears, read: icHep (HUM18100B), incubation time 90 min, single wells.
The mark [12] stands for this setting: icHep (HUM18100B), rate per single well.
[13] abbreviates: icHep (JFC), incubation time 15 min, single wells.
[14] abbreviates: icHep (JFC), incubation time 30 min, single wells.
[15] abbreviates: icHep (JFC), incubation time 45 min, single wells.
Setting [16] is: icHep (JFC), incubation time 60 min, single wells.
[17] abbreviates: icHep (JFC), incubation time 90 min, single wells.
The mark [18] stands for this setting: icHep (JFC), rate per single well.

Several values for one entry are separate records, joined by “and”; a condition that tells them apart may be missing. Identical values can stand only once.

T2 sequence (P08684 whole entry): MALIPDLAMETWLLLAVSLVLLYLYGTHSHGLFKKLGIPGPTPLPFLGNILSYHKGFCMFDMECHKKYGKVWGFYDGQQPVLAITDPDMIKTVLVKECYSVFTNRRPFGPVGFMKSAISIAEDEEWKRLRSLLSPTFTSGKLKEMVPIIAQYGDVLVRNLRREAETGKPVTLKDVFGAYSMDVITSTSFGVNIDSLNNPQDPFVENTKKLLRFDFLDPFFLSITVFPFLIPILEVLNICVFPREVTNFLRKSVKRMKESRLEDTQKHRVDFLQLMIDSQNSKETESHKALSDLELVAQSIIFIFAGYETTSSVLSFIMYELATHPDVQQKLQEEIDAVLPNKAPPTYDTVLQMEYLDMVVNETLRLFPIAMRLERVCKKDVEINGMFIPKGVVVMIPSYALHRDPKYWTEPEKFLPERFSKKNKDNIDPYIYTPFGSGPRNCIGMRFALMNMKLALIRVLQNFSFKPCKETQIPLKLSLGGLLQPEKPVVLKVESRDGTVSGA
T1 sequence (P10635 whole entry): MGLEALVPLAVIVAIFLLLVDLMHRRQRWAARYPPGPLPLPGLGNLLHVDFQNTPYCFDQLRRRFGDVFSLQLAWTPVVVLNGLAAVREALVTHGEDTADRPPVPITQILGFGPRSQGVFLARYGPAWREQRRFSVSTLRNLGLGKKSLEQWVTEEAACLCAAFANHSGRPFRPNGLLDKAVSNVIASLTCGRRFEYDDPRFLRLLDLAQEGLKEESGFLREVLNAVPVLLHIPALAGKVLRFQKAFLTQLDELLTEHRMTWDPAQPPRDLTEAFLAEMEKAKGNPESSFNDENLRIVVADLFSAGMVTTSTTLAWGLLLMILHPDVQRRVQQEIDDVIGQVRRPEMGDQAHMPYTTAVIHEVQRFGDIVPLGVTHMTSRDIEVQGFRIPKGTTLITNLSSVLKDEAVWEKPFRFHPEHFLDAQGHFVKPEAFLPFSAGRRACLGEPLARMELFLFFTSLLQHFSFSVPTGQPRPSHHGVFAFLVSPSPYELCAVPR
T3 sequence (P05181 whole entry): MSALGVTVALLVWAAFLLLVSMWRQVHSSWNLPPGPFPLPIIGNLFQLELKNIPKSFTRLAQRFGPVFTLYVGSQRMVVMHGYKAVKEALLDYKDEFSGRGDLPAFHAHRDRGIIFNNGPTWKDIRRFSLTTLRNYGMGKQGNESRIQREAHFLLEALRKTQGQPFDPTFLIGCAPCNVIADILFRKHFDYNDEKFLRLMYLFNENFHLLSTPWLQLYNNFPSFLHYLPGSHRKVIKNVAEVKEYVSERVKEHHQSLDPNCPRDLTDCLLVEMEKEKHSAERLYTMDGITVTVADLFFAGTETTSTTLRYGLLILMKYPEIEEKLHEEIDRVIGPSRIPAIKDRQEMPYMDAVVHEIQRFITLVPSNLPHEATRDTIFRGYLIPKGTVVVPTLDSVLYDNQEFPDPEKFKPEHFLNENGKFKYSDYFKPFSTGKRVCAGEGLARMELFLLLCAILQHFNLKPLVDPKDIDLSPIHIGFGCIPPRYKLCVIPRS

For the molecule `CC(O)c1cccc2cc(C(O)CNC(C)(C)C)oc12` (centres unmarked) [1'-hydroxybufuralol], the Enzyme activity was 16.9358 pmol/106 cells and 20.2476 pmol/106 cells and 18.9803 pmol/106 cells and 17.4477 pmol/106 cells on CYP2D6 (setting [1]); 29.3048 pmol/106 cells and 32.2567 pmol/106 cells and 32.3369 pmol/106 cells and 36.5879 pmol/106 cells at CYP2D6 (setting [2]); 57.2694 pmol/106 cells and 67.3705 pmol/106 cells and 63.1354 pmol/106 cells and 57.1013 pmol/106 cells at CYP2D6 (setting [3]); 88.7619 pmol/106 cells and 86.626 pmol/106 cells and 83.8364 pmol/106 cells and 89.8476 pmol/106 cells on CYP2D6 (setting [4]); 79.3357 pmol/106 cells and 85.9811 pmol/106 cells and 83.3593 pmol/106 cells and 74.6468 pmol/106 cells on CYP2D6 (setting [5]); 1.62 pmol/min/106 cells and 1.56 pmol/min/106 cells and 1.50 pmol/min/106 cells and 1.58 pmol/min/106 cells on CYP2D6 (setting [6]). For the same molecule, the Enzyme activity on CYP2D6 (setting [7]) was 20.6578 pmol/106 cells and 24.0318 pmol/106 cells and 24.5391 pmol/106 cells and 24.1229 pmol/106 cells; on CYP2D6 (setting [8]), 38.6716 pmol/106 cells and 36.9398 pmol/106 cells and 37.9846 pmol/106 cells and 33.7885 pmol/106 cells; on CYP2D6 (setting [9]), 56.8381 pmol/106 cells and 54.0547 pmol/106 cells and 51.5492 pmol/106 cells and 53.9902 pmol/106 cells; on CYP2D6 (setting [10]), 80.7041 pmol/106 cells and 78.1674 pmol/106 cells and 75.41 pmol/106 cells and 73.212 pmol/106 cells; on CYP2D6 (setting [11]), 107.294 pmol/106 cells and 123.561 pmol/106 cells and 104.675 pmol/106 cells and 114.288 pmol/106 cells; on CYP2D6 (setting [12]), 1.40 pmol/min/106 cells and 1.37 pmol/min/106 cells and 1.25 pmol/min/106 cells and 1.31 pmol/min/106 cells. Moreover, the Enzyme activity at CYP2D6 (setting [13]) was 27.4857 pmol/106 cells and 27.0951 pmol/106 cells and 24.9076 pmol/106 cells and 26.1443 pmol/106 cells; at CYP2D6 (setting [14]), 41.2873 pmol/106 cells and 33.111 pmol/106 cells and 48.4523 pmol/106 cells and 44.4518 pmol/106 cells; at CYP2D6 (setting [15]) it was 63.4972 pmol/106 cells and 59.7018 pmol/106 cells and 65.0037 pmol/106 cells and 67.8302 pmol/106 cells; at CYP2D6 (setting [16]) it was 89.1933 pmol/106 cells and 91.8156 pmol/106 cells and 102.797 pmol/106 cells and 101.548 pmol/106 cells; on CYP2D6 (setting [17]), 106.28 pmol/106 cells and 107.567 pmol/106 cells and 125.014 pmol/106 cells and 113.156 pmol/106 cells; at CYP2D6 (setting [18]) it was 1.43 pmol/min/106 cells and 1.69 pmol/min/106 cells and 1.64 pmol/min/106 cells and 1.42 pmol/min/106 cells. Further, the entries for the “Enzyme activity, Mean” value at CYP2D6 (PXB-cells (JFC)), at CYP2D6 (icHep (HUM18100B)) and on CYP2D6 (icHep (JFC)) were 1.57 pmol/min/106 cells, 1.33 pmol/min/106 cells and 1.55 pmol/min/106 cells, respectively.

In the case of `OCc1ncc2n1-c1ccc(Cl)cc1C(c1ccccc1F)=NC2` [1'-hydroxymidazolam], the Enzyme activity on CYP3A4 (setting [1]) is 85.9964 pmol/106 cells and 107.28 pmol/106 cells and 107.269 pmol/106 cells and 94.4354 pmol/106 cells; at CYP3A4 (setting [2]) it was 157.896 pmol/106 cells and 182.793 pmol/106 cells and 221.326 pmol/106 cells and 195.956 pmol/106 cells; on CYP3A4 (setting [3]), 229.127 pmol/106 cells and 265.395 pmol/106 cells and 205.135 pmol/106 cells and 181.378 pmol/106 cells; at CYP3A4 (setting [4]), 216.024 pmol/106 cells and 232.078 pmol/106 cells and 207.606 pmol/106 cells and 244.165 pmol/106 cells; on CYP3A4 (setting [5]), 251.177 pmol/106 cells and 288.431 pmol/106 cells and 316.537 pmol/106 cells and 214.43 pmol/106 cells; on CYP3A4 (setting [6]) it was 4.79 pmol/min/106 cells and 5.03 pmol/min/106 cells and 7.60 pmol/min/106 cells and 6.77 pmol/min/106 cells. In addition, the Enzyme activity on CYP3A4 (setting [7]) is 124.221 pmol/106 cells and 126.279 pmol/106 cells and 141.412 pmol/106 cells and 115.91 pmol/106 cells; at CYP3A4 (setting [8]) it was 259.113 pmol/106 cells and 258.447 pmol/106 cells and 251.469 pmol/106 cells and 277.435 pmol/106 cells; at CYP3A4 (setting [9]), 382.492 pmol/106 cells and 333.832 pmol/106 cells and 305.042 pmol/106 cells and 320.283 pmol/106 cells; on CYP3A4 (setting [10]), 439.172 pmol/106 cells and 380.966 pmol/106 cells and 417.242 pmol/106 cells and 349.083 pmol/106 cells; on CYP3A4 (setting [11]) it was 536.397 pmol/106 cells and 514.134 pmol/106 cells and 491.294 pmol/106 cells and 551.51 pmol/106 cells; on CYP3A4 (setting [12]), 8.99 pmol/min/106 cells and 8.81 pmol/min/106 cells and 7.34 pmol/min/106 cells and 10.8 pmol/min/106 cells. The Enzyme activity at CYP3A4 (setting [13]) is 99.4818 pmol/106 cells and 103.678 pmol/106 cells and 120.741 pmol/106 cells and 92.847 pmol/106 cells; on CYP3A4 (setting [14]), 252.368 pmol/106 cells and 242.904 pmol/106 cells and 185.11 pmol/106 cells and 190.476 pmol/106 cells; on CYP3A4 (setting [15]), 266.706 pmol/106 cells and 248.159 pmol/106 cells and 239.281 pmol/106 cells and 225.504 pmol/106 cells; at CYP3A4 (setting [16]), 273.171 pmol/106 cells and 272.05 pmol/106 cells and 245.256 pmol/106 cells and 275.122 pmol/106 cells; at CYP3A4 (setting [17]) it was 330.978 pmol/106 cells and 294.591 pmol/106 cells and 323.573 pmol/106 cells and 259.768 pmol/106 cells. In addition, the “Enzyme activity, Mean” value on CYP3A4 (PXB-cells (JFC)) was 6.05 pmol/min/106 cells; on CYP3A4 (icHep (HUM18100B)), 8.98 pmol/min/106 cells; at CYP3A4 (icHep (JFC)) it was 7.57 pmol/min/106 cells.

As for `O=c1[nH]c2cc(Cl)c(O)cc2o1` [6'-hydroxychlorzoxazone], the Enzyme activity on CYP2E1 (setting [1]) is 2.306 pmol/106 cells and 2.95 pmol/106 cells and 3.355 pmol/106 cells and 2.895 pmol/106 cells; at CYP2E1 (setting [2]), 5.44 pmol/106 cells and 5.421 pmol/106 cells and 6.357 pmol/106 cells and 6.2485 pmol/106 cells; on CYP2E1 (setting [3]), 6.903 pmol/106 cells and 8.029 pmol/106 cells and 8.51 pmol/106 cells and 7.254 pmol/106 cells; on CYP2E1 (setting [4]), 7.3761 pmol/106 cells and 7.959 pmol/106 cells and 8.112 pmol/106 cells and 7.339 pmol/106 cells; on CYP2E1 (setting [5]), 7.477 pmol/106 cells and 10.4196 pmol/106 cells and 8.199 pmol/106 cells and 8.482 pmol/106 cells; at CYP2E1 (setting [6]) it was 0.153 pmol/min/106 cells and 0.169 pmol/min/106 cells and 0.172 pmol/min/106 cells and 0.145 pmol/min/106 cells. Further, the Enzyme activity at CYP2E1 (setting [7]) is 10.0765 pmol/106 cells and 9.906 pmol/106 cells and 11.3983 pmol/106 cells and 9.755 pmol/106 cells; at CYP2E1 (setting [8]) it was 22.452 pmol/106 cells and 22.028 pmol/106 cells and 22.1618 pmol/106 cells and 20.005 pmol/106 cells; on CYP2E1 (setting [9]) it was 33.1164 pmol/106 cells and 28.7079 pmol/106 cells and 30.6951 pmol/106 cells and 27.4528 pmol/106 cells; at CYP2E1 (setting [10]), 42.0307 pmol/106 cells and 37.5801 pmol/106 cells and 42.224 pmol/106 cells and 33.7793 pmol/106 cells; on CYP2E1 (setting [11]), 67.3851 pmol/106 cells and 64.4144 pmol/106 cells and 55.8641 pmol/106 cells and 56.1231 pmol/106 cells; on CYP2E1 (setting [12]), 0.710 pmol/min/106 cells and 0.598 pmol/min/106 cells and 0.673 pmol/min/106 cells and 0.530 pmol/min/106 cells. The Enzyme activity on CYP2E1 (setting [13]) is 2.771 pmol/106 cells and 3.158 pmol/106 cells and 3.038 pmol/106 cells and 3.018 pmol/106 cells; at CYP2E1 (setting [14]), 4.046 pmol/106 cells and 4.392 pmol/106 cells and 5.788 pmol/106 cells and 6.302 pmol/106 cells; at CYP2E1 (setting [15]), 8.107 pmol/106 cells and 7.33 pmol/106 cells and 8.049 pmol/106 cells and 8.219 pmol/106 cells; on CYP2E1 (setting [16]), 8.619 pmol/106 cells and 8.336 pmol/106 cells and 6.8 pmol/106 cells and 10.6833 pmol/106 cells; at CYP2E1 (setting [17]) it was 10.5593 pmol/106 cells and 9.487 pmol/106 cells and 8.477 pmol/106 cells and 10.9673 pmol/106 cells; at CYP2E1 (setting [18]) it was 0.178 pmol/min/106 cells and 0.139 pmol/min/106 cells and 0.167 pmol/min/106 cells and 0.173 pmol/min/106 cells. The “Enzyme activity, Mean” value at CYP2E1 (PXB-cells (JFC)) worked out at 0.160 pmol/min/106 cells; on CYP2E1 (icHep (HUM18100B)), 0.628 pmol/min/106 cells; at CYP2E1 (icHep (JFC)), 0.164 pmol/min/106 cells.
